Laboratory results published in patent publication US12258328B2, “6-membered heteroaryl-containing aminopyridine compounds as EGFR inhibitors” (YUHAN CORPORATION, priority 2021, dated 2025).
Where two headings read alike, the source gives them in different places.

Assays:
EGFR del19/T790M/C797S = EGFR del19/T790M/C797S (Homo sapiens, UniProt P00533, C797S/DEL746-750/T790M); experiment: Biochemical EGFR kinase assay (Lance Ultra TR-FRET), triple mutant del19/T790M/C797S
In short: (§1)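 Kinase activity is measured by TR-FRET phosphopeptide detection. Compounds span 0.003 μM to 10 μM; the 1 h reaction at room temperature is quenched with EDTA, then labelled antibody (2 nM) is incubated 60 min before reading.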

EGFR L858R/T790M/C797S = EGFR L858R/T790M/C797S (Homo sapiens, UniProt P00533, C797S/L858R/T790M); experiment: Biochemical EGFR kinase assay (Lance Ultra TR-FRET), triple mutant L858R/T790M/C797S
EGFR L858R/T790M/C797S, sequence (P00533 25-1210 T790M/C797S/L858R): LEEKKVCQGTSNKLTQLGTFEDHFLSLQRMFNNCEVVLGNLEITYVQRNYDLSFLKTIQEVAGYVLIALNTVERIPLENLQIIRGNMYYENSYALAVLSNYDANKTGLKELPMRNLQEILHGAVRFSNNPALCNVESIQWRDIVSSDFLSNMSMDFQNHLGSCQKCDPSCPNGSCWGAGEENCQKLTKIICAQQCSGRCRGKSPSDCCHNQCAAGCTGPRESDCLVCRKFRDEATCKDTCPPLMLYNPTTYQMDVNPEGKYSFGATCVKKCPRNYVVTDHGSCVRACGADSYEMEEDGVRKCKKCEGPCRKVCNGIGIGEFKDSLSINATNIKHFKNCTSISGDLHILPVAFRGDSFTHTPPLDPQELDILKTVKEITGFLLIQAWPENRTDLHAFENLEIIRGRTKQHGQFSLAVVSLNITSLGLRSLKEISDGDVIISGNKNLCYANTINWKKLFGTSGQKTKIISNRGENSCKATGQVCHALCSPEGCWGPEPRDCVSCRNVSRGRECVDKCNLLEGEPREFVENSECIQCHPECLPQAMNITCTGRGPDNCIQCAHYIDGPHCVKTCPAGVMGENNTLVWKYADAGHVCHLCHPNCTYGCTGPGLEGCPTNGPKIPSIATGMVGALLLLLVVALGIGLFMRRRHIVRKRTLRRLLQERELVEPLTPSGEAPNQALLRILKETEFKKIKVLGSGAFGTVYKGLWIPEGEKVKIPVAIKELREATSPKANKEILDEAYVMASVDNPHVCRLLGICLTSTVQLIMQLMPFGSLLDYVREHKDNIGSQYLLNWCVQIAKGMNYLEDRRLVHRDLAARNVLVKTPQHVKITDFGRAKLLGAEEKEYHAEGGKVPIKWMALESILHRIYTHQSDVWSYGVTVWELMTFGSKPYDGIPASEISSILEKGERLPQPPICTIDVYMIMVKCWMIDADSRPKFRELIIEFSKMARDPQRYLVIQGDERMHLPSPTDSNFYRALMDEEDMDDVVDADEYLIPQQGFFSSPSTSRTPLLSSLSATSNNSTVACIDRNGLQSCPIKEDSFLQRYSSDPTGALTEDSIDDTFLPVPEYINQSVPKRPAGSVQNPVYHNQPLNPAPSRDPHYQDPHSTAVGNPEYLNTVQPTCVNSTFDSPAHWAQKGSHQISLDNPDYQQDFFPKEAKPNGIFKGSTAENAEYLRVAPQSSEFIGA
In short: as §1

EGFR del19/C797S = EGFR del19/C797S (Homo sapiens, UniProt P00533, C797S/DEL746-750); experiment: Biochemical EGFR kinase assay (Lance Ultra TR-FRET), double mutant del19/C797S
EGFR del19/C797S, sequence (P00533 with tags, fused parts or gaps DEL746-750/C797S): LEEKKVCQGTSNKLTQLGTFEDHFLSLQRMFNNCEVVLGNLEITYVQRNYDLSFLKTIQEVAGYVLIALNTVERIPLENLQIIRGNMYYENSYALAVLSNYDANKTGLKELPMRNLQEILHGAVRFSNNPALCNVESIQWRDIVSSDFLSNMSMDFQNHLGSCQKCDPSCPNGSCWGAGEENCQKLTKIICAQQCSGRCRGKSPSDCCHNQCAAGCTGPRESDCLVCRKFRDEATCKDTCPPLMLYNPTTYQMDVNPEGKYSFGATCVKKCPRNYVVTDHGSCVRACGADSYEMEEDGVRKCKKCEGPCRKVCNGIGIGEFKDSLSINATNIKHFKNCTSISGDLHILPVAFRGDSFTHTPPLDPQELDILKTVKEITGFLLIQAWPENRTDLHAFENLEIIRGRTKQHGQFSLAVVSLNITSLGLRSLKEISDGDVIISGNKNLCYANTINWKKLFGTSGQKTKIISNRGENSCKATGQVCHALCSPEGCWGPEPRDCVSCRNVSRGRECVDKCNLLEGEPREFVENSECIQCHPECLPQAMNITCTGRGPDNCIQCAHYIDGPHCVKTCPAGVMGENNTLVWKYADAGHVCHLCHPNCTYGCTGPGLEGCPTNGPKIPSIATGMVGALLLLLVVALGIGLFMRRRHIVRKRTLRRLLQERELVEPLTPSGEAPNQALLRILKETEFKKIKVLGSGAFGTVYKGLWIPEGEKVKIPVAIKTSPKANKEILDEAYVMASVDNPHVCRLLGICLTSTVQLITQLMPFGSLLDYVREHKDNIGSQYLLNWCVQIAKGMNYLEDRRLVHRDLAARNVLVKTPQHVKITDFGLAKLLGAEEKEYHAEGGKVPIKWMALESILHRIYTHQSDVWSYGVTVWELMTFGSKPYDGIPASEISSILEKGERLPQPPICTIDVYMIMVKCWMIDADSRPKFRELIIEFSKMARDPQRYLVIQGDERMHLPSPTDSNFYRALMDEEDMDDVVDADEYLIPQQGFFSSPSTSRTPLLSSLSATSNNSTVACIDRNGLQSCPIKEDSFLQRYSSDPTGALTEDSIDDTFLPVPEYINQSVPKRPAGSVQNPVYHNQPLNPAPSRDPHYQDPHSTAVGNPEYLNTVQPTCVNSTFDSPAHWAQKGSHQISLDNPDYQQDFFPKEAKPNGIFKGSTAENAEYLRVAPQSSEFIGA
In short: as §1

EGFR L858R/C797S = EGFR L858R/C797S (Homo sapiens, UniProt P00533, C797S/L858R); experiment: Biochemical EGFR kinase assay (Lance Ultra TR-FRET), double mutant L858R/C797S
In short: as §1

EGFR wildtype = EGFR wildtype (Homo sapiens, UniProt P00533); experiment: Biochemical EGFR kinase assay (Lance Ultra TR-FRET), wildtype
EGFR wildtype, sequence (P00533 25-1210): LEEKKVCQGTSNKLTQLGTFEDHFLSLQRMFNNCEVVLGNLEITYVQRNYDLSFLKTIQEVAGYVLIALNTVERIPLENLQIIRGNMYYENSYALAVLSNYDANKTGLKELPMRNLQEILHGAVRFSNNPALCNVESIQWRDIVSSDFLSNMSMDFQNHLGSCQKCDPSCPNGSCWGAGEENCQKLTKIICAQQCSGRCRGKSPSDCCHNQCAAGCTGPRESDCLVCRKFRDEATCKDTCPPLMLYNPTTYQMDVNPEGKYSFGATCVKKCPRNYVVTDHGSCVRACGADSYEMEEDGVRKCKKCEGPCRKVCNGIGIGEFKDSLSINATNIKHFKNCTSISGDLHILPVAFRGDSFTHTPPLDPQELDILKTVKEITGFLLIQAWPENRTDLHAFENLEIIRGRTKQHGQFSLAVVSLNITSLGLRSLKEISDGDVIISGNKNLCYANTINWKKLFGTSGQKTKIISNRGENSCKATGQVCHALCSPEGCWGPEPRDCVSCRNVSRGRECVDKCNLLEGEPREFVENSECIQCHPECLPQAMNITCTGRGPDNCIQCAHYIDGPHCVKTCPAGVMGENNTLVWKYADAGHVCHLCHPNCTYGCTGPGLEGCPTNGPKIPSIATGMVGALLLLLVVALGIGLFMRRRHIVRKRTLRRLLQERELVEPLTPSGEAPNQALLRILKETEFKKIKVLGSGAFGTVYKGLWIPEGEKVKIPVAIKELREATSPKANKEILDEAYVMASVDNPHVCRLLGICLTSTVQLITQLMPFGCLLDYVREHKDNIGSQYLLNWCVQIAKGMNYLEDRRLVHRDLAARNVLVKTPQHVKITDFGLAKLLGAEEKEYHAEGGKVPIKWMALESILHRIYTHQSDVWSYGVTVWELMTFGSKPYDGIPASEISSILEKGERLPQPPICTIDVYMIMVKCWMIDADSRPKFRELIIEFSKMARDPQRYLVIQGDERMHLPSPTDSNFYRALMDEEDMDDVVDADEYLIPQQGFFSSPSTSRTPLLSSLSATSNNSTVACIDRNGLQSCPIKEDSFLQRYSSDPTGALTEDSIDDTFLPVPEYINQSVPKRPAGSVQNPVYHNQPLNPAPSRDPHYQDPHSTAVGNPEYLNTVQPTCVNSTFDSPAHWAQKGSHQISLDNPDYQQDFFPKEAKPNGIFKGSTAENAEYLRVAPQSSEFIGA
In short: as §1

[1] = ATP at Km, read-out: IC50 del19/T790M/C797S, Km ATP
[2] = IC50 del19/T790M/C797S, 100 μM ATP
[3] = ATP at Km, read-out: IC50 L858R/T790M/C797S, Km ATP
[4] = IC50 L858R/T790M/C797S, 100 μM ATP
[5] = ATP at Km, read-out: IC50 del19/C797S, Km ATP
[6] = ATP at Km, read-out: IC50 L858R/C797S, Km ATP
[7] = ATP at Km, read-out: IC50 WT, Km ATP
[8] = Km ATP, read-out: IC50 del19/T790M/C797S (nM) Km ATP
[9] = Km ATP, read-out: IC50 L858R/T790M/C797S (nM) Km ATP
[10] = Km ATP, read-out: IC50 del19/C797S (nM) Km ATP
[11] = Km ATP, read-out: IC50 L858R/C797S (nM) Km ATP
[12] = Km ATP, read-out: IC50 WT (nM) Km ATP
[13] = IC50 del19/T790M/C797S (nM) 100 μM ATP, 100 μM ATP
[14] = IC50 L858R/T790M/C797S (nM) 100 μM ATP, 100 μM ATP
[15] = IC50 L858R/C797S (nM) 100 μM ATP, 100 μM ATP
[16] = IC50 WT (nM) 100 μM ATP, 100 μM ATP
[17] = IC50 del19/C797S (nM) 100 μM ATP, 100 μM ATP

EGFR del19/T790M/C797S, sequence (P00533 with tags, fused parts or gaps DEL746-750/T790M/C797S): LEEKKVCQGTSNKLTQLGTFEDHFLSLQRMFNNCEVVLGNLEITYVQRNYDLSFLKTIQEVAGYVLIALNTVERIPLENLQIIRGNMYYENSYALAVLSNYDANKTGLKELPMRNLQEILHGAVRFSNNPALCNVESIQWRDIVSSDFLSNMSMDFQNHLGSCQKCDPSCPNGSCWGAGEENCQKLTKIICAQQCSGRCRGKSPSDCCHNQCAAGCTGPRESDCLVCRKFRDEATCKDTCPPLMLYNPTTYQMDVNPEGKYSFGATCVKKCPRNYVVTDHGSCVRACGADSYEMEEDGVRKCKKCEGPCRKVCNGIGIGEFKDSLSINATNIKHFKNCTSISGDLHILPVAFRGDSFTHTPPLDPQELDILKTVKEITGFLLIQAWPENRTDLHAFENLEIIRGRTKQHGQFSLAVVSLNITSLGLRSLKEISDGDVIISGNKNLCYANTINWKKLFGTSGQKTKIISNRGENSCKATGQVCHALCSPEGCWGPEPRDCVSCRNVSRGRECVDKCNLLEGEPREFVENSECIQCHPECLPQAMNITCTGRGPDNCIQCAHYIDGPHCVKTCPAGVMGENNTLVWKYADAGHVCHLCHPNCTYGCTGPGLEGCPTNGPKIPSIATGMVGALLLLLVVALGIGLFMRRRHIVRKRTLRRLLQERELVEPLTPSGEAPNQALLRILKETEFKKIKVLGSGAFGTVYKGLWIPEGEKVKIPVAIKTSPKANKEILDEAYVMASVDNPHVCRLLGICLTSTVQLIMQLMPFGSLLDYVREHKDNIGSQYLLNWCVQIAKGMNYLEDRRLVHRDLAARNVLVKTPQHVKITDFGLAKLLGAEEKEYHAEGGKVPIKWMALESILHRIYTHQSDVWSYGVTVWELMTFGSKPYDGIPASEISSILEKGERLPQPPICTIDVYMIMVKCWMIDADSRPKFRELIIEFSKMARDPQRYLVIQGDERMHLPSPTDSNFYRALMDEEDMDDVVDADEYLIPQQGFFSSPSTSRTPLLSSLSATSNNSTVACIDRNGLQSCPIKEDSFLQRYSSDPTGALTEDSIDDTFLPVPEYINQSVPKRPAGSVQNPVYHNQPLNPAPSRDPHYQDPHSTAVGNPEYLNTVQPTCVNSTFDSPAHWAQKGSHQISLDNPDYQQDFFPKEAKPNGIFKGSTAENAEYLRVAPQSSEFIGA

| SMILES | IC50 (EGFR del19/T790M/C797S; [1]) | IC50 (EGFR del19/T790M/C797S; [2]) | IC50 (EGFR L858R/T790M/C797S; [3]) | IC50 (EGFR L858R/T790M/C797S; [4]) | IC50 (EGFR del19/C797S; [5]) | IC50 (EGFR del19/C797S; IC50 del19/C797S, 100 μM ATP) | IC50 (EGFR L858R/C797S; [6]) | IC50 (EGFR L858R/C797S; IC50 L858R/C797S, 100 μM ATP) | IC50 (EGFR wildtype; [7]) | IC50 (EGFR wildtype; IC50 WT, 100 μM ATP) | IC50 (EGFR del19/T790M/C797S; [8]) | IC50 (EGFR L858R/T790M/C797S; [9]) | IC50 (EGFR del19/C797S; [10]) | IC50 (EGFR L858R/C797S; [11]) | IC50 (EGFR wildtype; [12]) | IC50 (EGFR del19/T790M/C797S; [13]) | IC50 (EGFR L858R/T790M/C797S; [14]) | IC50 (EGFR L858R/C797S; [15]) | IC50 (EGFR wildtype; [16]) | IC50 (EGFR del19/C797S; [17]) |
| --- | --- | --- | --- | --- | --- | --- | --- | --- | --- | --- | --- | --- | --- | --- | --- | --- | --- | --- | --- | --- |
| Cc1cc(-c2cnc(Nc3ccnc(-c4cnn(S(=O)(=O)C5CC5)c4)n3)cc2N[C@H]2CC[C@@](C)(O)CC2)nnc1C [Example 50, (1s,4s)-4-((2-((2-(1-(Cyclopropylsulfonyl)-1H-pyrazol-4-yl)pyrimidin-4-yl)amino)-5-(5,6-dimethylpyridazin-3-yl)pyridin-4-yl)amino)-1-methylcyclohexan-1-ol] |  |  |  |  |  |  |  |  |  |  | 0.3 nM | 0.1 nM | 0.5 nM | 0.4 nM |  | 0.2 nM | 0.1 nM | 2.2 nM | > 10000 nM |  |
| C[C@]1(O)CC[C@@H](Nc2cc(Nc3ccnc(-c4cnn(S(=O)(=O)C5CC5)c4)n3)ncc2-c2ccc(C(F)(F)F)nn2)CC1 [Example 51, (1s,4s)-4-((2-((2-(1-(Cyclopropylsulfonyl)-1H-pyrazol-4-yl)pyrimidin-4-yl)amino)-5-(6-(trifluoromethyl)pyridazin-3-yl)pyridin-4-yl)amino)-1-methylcyclohexan-1-ol] |  |  |  |  |  |  |  |  |  |  | 0.8 nM | 0.3 nM | 3.1 nM | 1 nM |  | 0.6 nM | 0.6 nM | 16.7 nM | > 10000 nM | 10.6 nM |
| CC(C)(O)c1cnc(-c2cnc(Nc3ccnc(-c4cnn(S(=O)(=O)C5CC5)c4)n3)cc2N[C@H]2CC[C@@](C)(O)CC2)cn1 [Example 118, (1s,4s)-4-((2-((2-(1-(Cyclopropylsulfonyl)-1H-pyrazol-4-yl)pyrimidin-4-yl)amino)-5-(5-(2-hydroxypropan-2-yl)pyrazin-2-yl)pyridin-4-yl)amino)-1-methylcyclohexan-1-ol] |  |  |  |  |  |  |  |  |  |  | 0.1 nM | 0.1 nM | 0.1 nM | 0.05 nM |  | 0.04 nM | 0.2 nM | 0.7 nM | 400 nM | 0.3 nM |
| C[C@]1(O)CC[C@@H](Nc2cc(Nc3ccnc(-c4cnn(S(=O)(=O)C5CC5)c4)n3)ncc2-c2ccc(N3CCOCC3)cn2)CC1 [Example 38, (1s,4s)-4-((6′-((2-(1-(Cyclopropylsulfonyl)-1H-pyrazol-4-yl)pyrimidin-4-yl)amino)-5-morpholino-[2,3′-bipyridin]-4′-yl)amino)-1-methylcyclohexan-1-ol] |  |  |  |  |  |  |  |  |  |  |  | 0.2 nM | 0.3 nM | 0.9 nM |  | 0.4 nM | 0.7 nM | 4.3 nM | 1430 nM | 0.6 nM |
| CN(C)c1ccc(-c2cnc(Nc3ccnc(-c4cnn(S(=O)(=O)C5CC5)c4)n3)cc2N[C@H]2CC[C@@](C)(O)CC2)nc1 [Example 40, (1s,4s)-4-((6′-((2-(1-(Cyclopropylsulfonyl)-1H-pyrazol-4-yl)pyrimidin-4-yl)amino)-5-(dimethylamino)-[2,3′-bipyridin]-4′-yl)amino)-1-methylcyclohexan-1-ol] |  |  |  |  |  |  |  |  |  |  | 0.7 nM | 0.5 nM | 2.3 nM | 1.7 nM | 5 nM | 2.1 nM | 1.7 nM | 7.7 nM | 1440 nM | 3.2 nM |
| CN1CCN(Cc2cnc(-c3cnc(Nc4ccnc(-c5cnn(S(=O)(=O)C6CC6)c5)n4)cc3N[C@H]3CC[C@@](C)(O)CC3)cn2)CC1 [Example 62, (1s,4s)-4-((2-((2-(1-(Cyclopropylsulfonyl)-1H-pyrazol-4-yl)pyrimidin-4-yl)amino)-5-(5-((4-methylpiperazin-1-yl)methyl)pyrazin-2-yl)pyridin-4-yl)amino)-1-methylcyclohexan-1-ol] |  |  |  |  |  |  |  |  |  |  |  |  |  |  |  | 0.1 nM | 0.1 nM | 0.9 nM | 745 nM | 0.2 nM |

More lines, now with the values ahead:

| IC50 (EGFR del19/T790M/C797S; [1]) | IC50 (EGFR del19/T790M/C797S; [2]) | IC50 (EGFR L858R/T790M/C797S; [3]) | IC50 (EGFR L858R/T790M/C797S; [4]) | IC50 (EGFR del19/C797S; [5]) | IC50 (EGFR del19/C797S; IC50 del19/C797S, 100 μM ATP) | IC50 (EGFR L858R/C797S; [6]) | IC50 (EGFR L858R/C797S; IC50 L858R/C797S, 100 μM ATP) | IC50 (EGFR wildtype; [7]) | IC50 (EGFR wildtype; IC50 WT, 100 μM ATP) | IC50 (EGFR del19/T790M/C797S; [8]) | IC50 (EGFR L858R/T790M/C797S; [9]) | IC50 (EGFR del19/C797S; [10]) | IC50 (EGFR L858R/C797S; [11]) | IC50 (EGFR wildtype; [12]) | IC50 (EGFR del19/T790M/C797S; [13]) | IC50 (EGFR L858R/T790M/C797S; [14]) | IC50 (EGFR L858R/C797S; [15]) | IC50 (EGFR wildtype; [16]) | IC50 (EGFR del19/C797S; [17]) | SMILES |
| --- | --- | --- | --- | --- | --- | --- | --- | --- | --- | --- | --- | --- | --- | --- | --- | --- | --- | --- | --- | --- |
| 0.4 nM | 0.7 nM | 0.1 nM | 0.3 nM | 0.1 nM | 0.3 nM | 0.04 nM | 0.4 nM | 0.3 nM | 137 nM |  |  |  |  |  |  |  |  |  |  | CN1CCN(C(=O)c2ccc(-c3cnc(Nc4ccnc(-c5cnn(S(=O)(=O)C6CC6)c5)n4)cc3N[C@H]3CC[C@@](C)(O)CC3)nc2)CC1 [Example 199, (6′-((2-(1-(Cyclopropylsulfonyl)-1H-pyrazol-4-yl)pyrimidin-4-yl)amino)-4′-(((1s,4s)-4-hydroxy-4-methylcyclohexyl)amino)-[2,3′-bipyridin]-5-yl)(4-methylpiperazin-1-yl)methanone] |
|  |  |  |  |  |  |  |  |  |  | 0.3 nM | 0.1 nM | 2.2 nM | 1.2 nM | 26.3 nM |  |  |  |  |  | CN1CCC(Oc2cnc(-c3cnc(Nc4ccnc(-c5cnn(S(=O)(=O)C6CC6)c5)n4)cc3N[C@H]3CC[C@@H](F)CC3)cn2)CC1 [Example 144, N^2-(2-(1-(Cyclopropylsulfonyl)-1H-pyrazol-4-yl)pyrimidin-4-yl)-N^4-((1s,4s)-4-fluorocyclohexyl)-5-(5-((1-methylpiperidin-4-yl)oxy)pyrazin-2-yl)pyridine-2,4-diamine] |
| 0.1 nM | 0.2 nM |  | 0.2 nM | 0.4 nM | 0.9 nM | 0.5 nM | 14.1 nM | 7.8 nM | 6310 nM |  |  |  |  |  |  |  |  |  |  | C[C@]1(O)CC[C@@H](Nc2cc(Nc3ccnc(-c4cnn(S(=O)(=O)C5CC5)c4)n3)ncc2-c2cccc(NCCO)n2)CC1 [Example 285, (1s,4s)-4-((6′-((2-(1-(Cyclopropylsulfonyl)-1H-pyrazol-4-yl)pyrimidin-4-yl)amino)-6-((2-hydroxyethyl)amino)-[2,3′-bipyridin]-4′-yl)amino)-1-methylcyclohexan-1-ol] |
| 0.2 nM | 0.3 nM | 0.1 nM | 0.2 nM | 0.2 nM | 0.5 nM | 0.3 nM | 6.8 nM | 0.7 nM | 2000 nM |  |  |  |  |  |  |  |  |  |  | CC1(O)CCC(Nc2cc(Nc3ccnc(-c4cnn(S(=O)(=O)C5CC5)c4)n3)ncc2-c2cc(CN3CC(O)C3)ccn2)CC1 (stereo not shown) [Example 288, 1-((6′-((2-(1-(Cyclopropylsulfonyl)-1H-pyrazol-4-yl)pyrimidin-4-yl)amino)-4′-(((1s,4s)-4-hydroxy-4-methylcyclohexyl)amino)-[2,3′-bipyridin]-4-yl)methyl) azetidin-3-ol] |
|  |  |  |  |  |  |  |  |  |  | 2.7 nM | 1.2 nM | 12.1 nM | 12.6 nM | 45.7 nM |  |  |  |  |  | O=S(=O)(C1CC1)n1cc(-c2nccc(Nc3cc(N[C@H]4CC[C@@H](F)CC4)c(-c4ccc(CN5CCOCC5)cn4)cn3)n2)cn1 [Example 126, N^6′-(2-(1-(Cyclopropylsulfonyl)-1H-pyrazol-4-yl)pyrimidin-4-yl)-N^4′-((1s,4s)-4-fluorocyclohexyl)-5-(morpholinomethyl)-[2,3′-bipyridine]-4′,6′-diamine] |
|  |  |  |  |  |  |  |  |  |  | 0.3 nM | 0.1 nM | 9.7 nM | 4.3 nM | 7.4 nM |  |  |  |  |  | CC(C)Nc1cc(Nc2ccnc(-c3cnn(S(=O)(=O)C4CC4)c3)n2)ncc1-c1cnc(OCCN(C)C)cn1 [Example 122, N^2-(2-(1-(Cyclopropylsulfonyl)-1H-pyrazol-4-yl)pyrimidin-4-yl)-5-(5-(2-(dimethylamino)ethoxy)pyrazin-2-yl)-N^4-isopropylpyridine-2,4-diamine] |
|  | 0.1 nM |  | 0.4 nM |  | 0.6 nM |  | 2.3 nM |  | 1970 nM |  |  |  |  |  |  |  |  |  |  | CC1(O)CCC(Nc2cc(Nc3ccnc(-c4cnn(S(=O)(=O)C5CC5)c4)n3)ncc2-c2cc(NC3CC(O)C3)ccn2)CC1 (stereo not shown) [Example 283, (1s,4s)-4-((6′-((2-(1-(Cyclopropylsulfonyl)-1H-pyrazol-4-yl)pyrimidin-4-yl)amino)-4-((3-hydroxycyclobutyl)amino)-[2,3′-bipyridin]-4′-yl)amino)-1-methylcyclohexan-1-ol] |
|  |  |  |  |  |  |  |  |  |  | 0.7 nM | 0.3 nM | 8.9 nM | 12.1 nM | 44.8 nM |  |  |  |  |  | CC(C)Nc1cc(Nc2ccnc(-c3cnn(S(=O)(=O)C4CC4)c3)n2)ncc1-c1ccc(CN2CCOCC2)cn1 [Example 125, N^6′-(2-(1-(Cyclopropylsulfonyl)-1H-pyrazol-4-yl)pyrimidin-4-yl)-N^4′-isopropyl-5-(morpholinomethyl)-[2,3′-bipyridine]-4′,6′-diamine] |
